Data from patent US8809232B2, “Herbicidal compositions comprising 4-amino-3-chloro-5-fluoro-6-(4-chloro-2-fluoro-3-methoxyphenyl) pyridine-2-carboxylic acid or a derivative thereof and halosulfuron, pyrazosulfuron and esprocarb” (Dow Agrosciences LLC, priority 2012, dated 2014).
Values joined by “and” are separate entries in the source; they are usually repeats but may differ in a detail not shown here. Equal values may be shown once.

What was measured:
[1] = test system: CYPIR; assay: Post-emergence foliar-applied herbicidal mixtures, greenhouse, direct seeded rice weeds; format: in vivo, Cyperus iria L.
From the text: (§1) Seeds or nutlets of the desired test plant species were planted in a soil matrix prepared by mixing a loam or sandy loam soil (e.g., 28.6 percent silt, 18.8 percent clay, and 52.6 percent sand, with a pH of about 5.8 and an organic matter content of about 1.8 percent) and calcareous grit in an 80 to 20 ratio. The soil matrix was contained in plastic pots with a volume of 1 quart and a surface area of 83.6 square centimeters (cm^2). When required to ensure good germination and healthy plants, a fungicide treatment and/or other chemical or physical treatment was applied. The plants were grown for 8-22 days in a greenhouse with an approximate 14 hr photoperiod which was maintained at about 29° C. during the day and 26° C. during the night. Nutrients (Peters Excel® 15-5-15 5-Ca 2-Mg and iron chelate) were applied in the irrigation solution as needed and water was added on a regular basis. Supplemental lighting was provided with overhead metal halide 1000-Watt lamps as necessary. The plants were employed for testing when they reached the first through fourth true leaf stage.
(§2) Treatments consisted of the acid or esters of 4-amino-3-chloro-5-fluoro-6-(4-chloro-2-fluoro-3-methoxy-phenyl)pyridine-2-carboxylic acid (Compound A), each formulated as an SC (suspension concentrate), and various herbicidal components alone and in combination. Forms of compound A were applied on an acid equivalent basis.
(§3) Other herbicidal components were applied on an active ingredient basis and included the acetolactate synthase (ALS)-inhibiting herbicides halosulfuron-methyl formulated as Permit® 75 WDG, pyrazosulfuron-ethyl formulated as Agreen® WG or Sirius® G, and the VLCFA inhibiting herbicide esprocarb (technical grade material).
(§4) Treatment requirements were calculated based upon the rates being tested, the concentration of active ingredient or acid equivalent in the formulation, and a 12 mL application volume at a rate of 187 L/ha.
(§5) For treatments comprised of formulated compounds, measured amounts of compounds were placed individually in 25 mL glass vials and diluted in a volume of 1.25% (v/v) Agri-Dex® crop oil concentrated to obtain 12× stock solutions. […]
(§6) For treatments comprised of formulated and technical compounds, weighed amounts of the technical materials were placed individually in 25 mL glass vials and dissolved in a volume of 97:3 v/v acetone/DMSO to obtain 12× stock solutions, and measured amounts of the formulated compounds were placed individually in 25 mL glass vials and diluted in a volume of 1.5% (v/v) crop oil concentrate or water to obtain 12× stock solutions. […]

[2] = test system: FIMMI; assay: In-water applied herbicidal mixtures, greenhouse, transplanted paddy rice weeds; format: in vivo, Fimbristylis miliacea (L.) Vahl; conditions: 4.38 g ae/ha
Method: (§7) Weed seeds or nutlets of the desired test plant species were planted in puddled soil (mud) prepared by mixing a shredded, non-sterilized mineral soil (50.5 percent silt, 25.5 percent clay, and 24 percent sand, with a pH of about 7.6 and an organic matter content of about 2.9 percent) and water at a 1:1 volumetric ratio. The prepared mud was dispensed in 365 mL aliquots into 16-ounce (oz.) non-perforated plastic pots with a surface area of 86.59 square centimeters (cm^2) leaving a headspace of 3 centimeters (cm) in each pot Mud was allowed to dry overnight prior to planting or transplanting. Rice seeds were planted in Sun Gro MetroMix® 306 planting mixture, which typically has a pH of 6.0 to 6.8 and an organic matter content of about 30 percent, in plastic plug trays. Seedlings at the second or third leaf stage of growth were transplanted into 840 mL of mud contained in 32-oz. non-perforated plastic pots with a surface area of 86.59 cm^2 4 days prior to herbicide application. The paddy was created by filling the headspace of the pots with 2.5 to 3 cm of water. When required to ensure good germination and healthy plants, a fungicide treatment and/or other chemical or physical treatment was applied. The plants were grown for 4-22 days in a greenhouse with an approximate 14 hr photoperiod which was maintained at about 29′C during the day and 26° C. during the night. Nutrients were added as Osmocote® (19:6:12, N:P:K^+ minor nutrients) at 2 g per 16-oz. pot and 4 g per 32-oz. pot. Water was added on a regular basis to maintain the paddy flood, and supplemental lighting was provided with overhead metal halide 1000-Watt lamps as necessary. The plants were employed for testing when they reached the first through fourth true leaf stage.
as §2, with “(compound A)” for “(Compound A),”, “concentrate)” for “concentrate),”
(§8) Other herbicidal components were applied on an active ingredient basis and included acetolactate synthase (ALS)-inhibiting herbicides formulated as Permit® 75 WDG, pyrazosulfuron-ethyl formulated as Agreen® WG or Sirius® G, and VLCFA inhibiting herbicide esprocarb (technical grade material).
(§9) Treatment requirements for each compound or herbicidal component were calculated based upon the rates being tested, the concentration of active ingredient or acid equivalent in the formulation, an application volume of 2 mL per component per pot, and an application area of 86.59 cm^2 per pot.
(§10) For formulated compounds, a measured amount was placed in an individual 100 or 200 mL glass vial and was dissolved in a volume of 1.25% (v/v) Agri-Dex® crop oil concentrate to obtain application solutions.
(§11) For technical grade compounds, a weighed amount was placed in an individual 100 to 200 mL glass vial and was dissolved in a volume of acetone to obtain concentrated stock solutions. […] The concentrated stock solutions obtained were diluted with an equivalent volume of an aqueous mixture containing 2.5% (v/v) crop oil concentrate so that the final application solutions contained 1.25% (v/v) crop oil concentrate.
Applications were made by injecting with a pipetter appropriate amounts of the application solutions, individually and sequentially, into the aqueous layer of the paddy. […]

[3] = test system: SCPJU; assay: Post-emergence foliar-applied herbicidal mixtures, greenhouse, direct seeded rice weeds; format: in vivo, Schoenoplectus juncoides (Roxb.) Palla; conditions: 8.75 g ae/ha
From the text: as §1, with “stage. […]” for “stage.”
as §4, §5, §6

[4] = test system: ECHOR; assay: In-water applied herbicidal mixtures, greenhouse, transplanted paddy rice weeds; format: in vivo, Echinochloa oryzoides (Ard.) Fritsch
Method: as §7
as §2, with “(compound A)” for “(Compound A),”, “concentrate)” for “concentrate),”
as §8, §9, §10, §11
(§12) Applications were made by injecting with a pipetter appropriate amounts of the application solutions, individually and sequentially, into the aqueous layer of the paddy. Control plants were treated in the same manner with the solvent blank. Applications were made so that all treated plant material received the same concentrations of acetone and crop oil concentrate.
(§13) The treated plants and control plants were placed in a greenhouse as described above and water was added as needed to maintain a paddy flood. […]

[5] = test system: LEFCH; assay: Post-emergence foliar-applied herbicidal mixtures, greenhouse, direct seeded rice weeds; format: in vivo, Leptochloa chinensis (L.) Nees
From the text: as §1, §2, §3, §4
(§14) For treatments comprised of formulated compounds, measured amounts of compounds were placed individually in 25 mL glass vials and diluted in a volume of 1.25% (v/v) Agri-Dex® crop oil concentrated to obtain 12× stock solutions. […] Application solutions were prepared by adding an appropriate amount of each stock solution (e.g., 1 mL) and diluted to the appropriate final concentrations with the addition of 10 mL of an aqueous mixture of 1.25% (v/v) crop oil concentrate so that the final spray solutions contained 1.25+/−0.05% (v/v) crop oil concentrate.
(§15) For treatments comprised of technical compounds, weighed amounts can be placed individually in 25 mL glass vials and dissolved in a volume of 97:3 v/v acetone/DMSO to obtain 12× stock solutions. […] Application solutions can be prepared by adding an appropriate amount of each stock solution (e.g., 1 mL) and diluted to the appropriate final concentrations with the addition of 10 mL of an aqueous mixture of 1.5% (v/v) crop oil concentrate so that the final spray solutions contain 1.25% (v/v) crop oil concentrate. When technical materials are used, the concentrated stock solutions can be added to the spray solutions so that the final acetone and DMSO concentrations of the application solutions are 16.2% and 0.5%, respectively.
(§16) For treatments comprised of formulated and technical compounds, weighed amounts of the technical materials were placed individually in 25 mL glass vials and dissolved in a volume of 97:3 v/v acetone/DMSO to obtain 12× stock solutions, and measured amounts of the formulated compounds were placed individually in 25 mL glass vials and diluted in a volume of 1.5% (v/v) crop oil concentrate or water to obtain 12× stock solutions. […] Application solutions were prepared by adding an appropriate amount of each stock solution (e.g., 1 mL) and diluted to the appropriate final concentrations with the addition of an appropriate amount of an aqueous mixture of 1.5% (v/v) crop oil concentrate so that the final spray solutions contained 1.25% (v/v) crop oil concentrate. […]

[6] = test system: BRAPP; assay: as above; format: in vivo
From the text: as §1, §2, §3, §4, §14, §15, §16

[7] = test system: CYPRO; assay: In-water applied herbicidal mixtures, greenhouse, transplanted paddy rice weeds; format: in vivo, Cyperus rotundus L.
Method: as §7
as §2, with “(compound A)” for “(Compound A),”, “concentrate)” for “concentrate),”
as §8, §9, §10, §11, §12, §13

[8] = test system: SCPMA; assay: as above; format: in vivo
Method: as §7
as §2, with “(compound A)” for “(Compound A),”, “concentrate)” for “concentrate),”
as §8, §9, §10, §11, §12, §13

[9] = test system: LEFCH; assay: as above; format: in vivo, Leptochloa chinensis (L.) Nees; conditions: 4.38 g ae/ha
Method: as §7, with “Water was added on a regular basis to maintain the paddy flood, and supplemental lighting was provided with overhead metal halide 1000-Watt lamps as necessary. The plants were employed for testing when they reached the first through fourth true leaf stage.” left out
as §9
For formulated compounds, a measured amount was placed in an individual 100 or 200 mL glass vial and was dissolved in a volume of 1.25% (v/v) Agri-Dex® crop oil concentrate to obtain application solutions. […]

[10] = test system: DIGSA; assay: Post-emergence foliar-applied herbicidal mixtures, greenhouse, direct seeded rice weeds; format: in vivo, Digitaria sanguinalis (L.) Scop.
From the text: as §1, §2, §3, §4, §14, §15, §16

COc1c(Cl)ccc(-c2nc(C(=O)OCc3ccccc3)c(Cl)c(N)c2F)c1F [Compound A Benzyl Ester]
Visual Weed Control (%) - 22 DAA CYPIR Obs ([1]; 4.38 g ae/ha): 25% | Visual Weed Control (%) - 22 DAA CYPIR Obs ([1]; 8.75 g ae/ha): 50% | Visual Weed Control (%) - 21 DAA FIMMI Obs [2]: 20% | Visual Weed Control (%) - 22 DAA SCPJU Obs [3]: 80% | Visual Weed Control (%) - 21 DAA ECHOR Obs ([4]; 4.38 g ae/ha): 0% | Visual Weed Control (%) - 21 DAA ECHOR Obs ([4]; 8.75 g ae/ha): 10% | Visual Weed Control (%) - 20 DAA ECHOR Obs ([4]; 35 g ae/ha): 73% | Visual Weed Control (%) - 20 DAA LEFCH Obs ([5]; 4.38 g ae/ha): 0% | Visual Weed Control (%) - 20 DAA LEFCH Obs ([5]; 8.75 g ae/ha): 20% | Visual Weed Control (%) - 20 DAA LEFCH Obs ([5]; 17.5 g ae/ha): 40% | Visual Weed Control (%) - 20 DAA BRAPP Obs ([6]; 4.38 g ae/ha): 40% | Visual Weed Control (%) - 21 DAA BRAPP Obs ([6]; 4.38 g ae/ha): 50% | Visual Weed Control (%) - 20 DAA BRAPP Obs ([6]; 8.75 g ae/ha): 70% | Visual Weed Control (%) - 21 DAA CYPRO Obs ([7]; 4.38 g ae/ha): 20% and 30% | Visual Weed Control (%) - 21 DAA CYPRO Obs ([7]; 8.75 g ae/ha): 65% and 60% | Visual Weed Control (%) - 22 DAA SCPMA Obs ([8]; 4.38 g ae/ha): 0% | Visual Weed Control (%) - 22 DAA SCPMA Obs ([8]; 8.75 g ae/ha): 0% | Visual Weed Control (%) - 22 DAA SCPMA Obs ([8]; 17.5 g ae/ha): 0% | Visual Weed Control (%) - 20 DAA SCPMA Obs ([8]; 70 g ae/ha): 0% | Visual Weed Control (%) - 22 DAA LEFCH Obs [9]: 0% | Visual Weed Control (%) - 21 DAA DIGSA Obs ([10]; 17.5 g ae/ha): 23% | Visual Weed Control (%) - 21 DAA DIGSA Obs ([10]; 35 g ae/ha): 38%
